The test has as its system THP-1 cells. Kind of test: Induction of differentiation of THP-1 leukemia cells (CD11b membrane expression, flow cytometry). Particulars: Homo sapiens; percentage of CD11b positive THP-1 cells, 96 h treatment. The format is cell-based. The protocol:
By analyzing the induction of CD11b membrane expression on THP-1 cells we are assessing the ability of LSD1 inhibitors to induce terminal monocytic differentiation of a MLL-AF9 AML cell line. […] They carry t(9;11)(p21;q23) leading to MLL-MLLT3 (MLL-AF9) fusion gene. This cell line can undergo monocytic differentiation upon treatment with the appropriate stimulus. […] In this assay, 150, 000 THP-1 cells were seeded in 1 ml of complete culture medium in 6-well tissue culture plates. […] Cells were kept in the presence of test compound for 96 h at a 5% CO2 atmosphere at 37° C. After this treatment period, cells were harvested, washed twice with PBS buffer and placed in a V-bottom 96-well plate. Each treated sample was split in two. […] Percentage of CD11b positive cells, as an indicator of monocytic differentiation, was determined compared to isotype control antibody stained cells. EC50 values were calculated by non-linear regression analysis.
On the technique in general: In flow cytometry, cells or beads pass a laser one at a time.

pEC50: −log10 of the molar value. Structures can show the parent of a compound that is named as a salt.

As for `N[C@H]1CC[C@@H](N[C@@H]2C[C@H]2c2ccccc2)CC1` [Example 4, (cis)-N1-((1R,2S)-2-phenylcyclopropyl)cyclohexane-1,4-diamine hydrochloride], the pEC50 – broadly, the negative decadic logarithm of the EC50, by convention in mol/L – is 8.28.

The compound `N[C@H]1CC[C@H](N[C@@H]2C[C@H]2c2ccccc2)CC1` [Example 5, (trans)-N1-((1R,2S)-2-phenylcyclopropyl)cyclohexane-1,4-diamine hydrochloride] showed a negative-log EC50 (pEC50) of 9.10.

Source of the values: patent US10214477B2, “(Hetero)aryl cyclopropylamine compounds as LSD1 inhibitors” (Oryzon Genomics S.A., priority 2011, dated 2019).
